Experimental data reported in ChEMBL document CHEMBL1125173, “Cannabimimetic activity of novel enantiomeric, benzofuran cannabinoids” (1990).

Experiments:
Type in all cases: functional
Columba livia [1] = assay: Effective Dose when administered in pigeons; conditions: in Columbidae
Rattus norvegicus [2] = assay: Effective Dose when administered at a dose of 0.94 mg/kg in rats
Mus musculus [3] = assay: Psychotropic Effect evaluated by Mouse Ring Test at a dose of 0.1 mg/kg
Mus musculus [4] = assay: Psychotropic Effect evaluated by Mouse Ring Test at a dose of 1 mg/kg
Mus musculus [5] = assay: Psychotropic Effect evaluated by Mouse Ring Test at a dose of 20 mg/kg
Mus musculus [6] = assay: Psychotropic Effect evaluated by Mouse Ring Test at a dose of 10 mg/kg
Rattus norvegicus [7] = assay: Effective Dose when administered at a dose of 0.98 mg/kg in rats
Columba livia [8] = assay: Effective Dose when administered at a dose of 0.99 mg/kg in pigeons; conditions: in Columbidae
Columba livia [9] = assay: Effective Dose when administered at a dose of 0.78 mg/kg in pigeons; conditions: in Columbidae

Compound	ED50 (Columba livia [1]) [mg/kg]	ED50 (Rattus norvegicus [2]) [mg/kg]	Psychotropic Effect (Mus musculus [3])	Psychotropic Effect (Mus musculus [4])	Psychotropic Effect (Mus musculus [5])	Psychotropic Effect (Mus musculus [6])	ED50 (Rattus norvegicus [7]) [mg/kg]	ED50 (Columba livia [8]) [mg/kg]	ED50 (Columba livia [9]) [mg/kg]
CCCCCc1cc(O)c2c(c1)OC(C)(C)[C@@H]1CCC(C)=C[C@@H]21 [DRONABINOL]	0.18	0.66	–	–	–	–	–	–	–
C=C1[C@H]2Oc3cc(C(C)(C)CCCCCC)cc(O)c3[C@H]2[C@@H]2C[C@H]1C2(C)C	–	–	13.2	42	89.2	66.1	0.72	0.17	–
CCCCCc1cc(O)c2c(c1)OC(C)(C)[C@@H]1CC=C(C)C[C@@H]21 [DELTA-8-TETRAHYDROCANNABINOL]	–	–	13.2	20.9	–	41.3	–	–	–
C=C1[C@H]2Oc3cc(C(C)(C)CCCCCC)cc(O)c3[C@H]2[C@H]2C[C@@H]1C2(C)C	–	–	10	20	43.2	28.1	–	–	3.57
